Laboratory results taken from patent publication US8790898B2 (priority 2008, dated 2014).

Assays:
[1] = tested on: CBD1 peptide and CBD1- and CBM-based peptides; parameters: species or system BALB/c mice; details: mouse, in vivo; for ELISA titer against C17K / ELISA C17K / ELISA K23M / ELISA K24W / ELISA K27M / ELISA K27W / ELISA K27W(G) / ELISA K30W(G) / ELISA against the Immunogen (OD) / ELISA p6362 / IgG2/IgG1 ratio: sc; for ELISA C17K: test concentration or dose not given here; for ELISA K24W: test concentration or dose not given here; for ELISA K27W(G): test concentration or dose not given here; for ELISA K27W: test concentration or dose not given here; for ELISA K30W(G): test concentration or dose not given here; for ELISA against the Immunogen (OD): test concentration or dose not given here; for ELISA p6362: test concentration or dose not given here
HIV-1 BZ 167 = assay type: cell-based

Row | Substance | ELISA titer against C17K [1] | % inhibition of HIV-1 at 200-fold dilution (HIV-1 BZ 167) [%] | Neutralizing activity ID50 (HIV-1 BZ 167) | ELISA C17K [1] | ELISA K23M [1] | ELISA K24W [1] | ELISA K27M [1] | ELISA K27W [1] | ELISA K27W(G) [1] | ELISA K30W(G) [1] | ELISA against the Immunogen (OD) [1] [OD] | ELISA p6362 [1] | % Inhibition of HIV-1 infection at 200-fold dilution (HIV-1 BZ 167) | Neutralizing activity ID50 Fold-Dilution (HIV-1 BZ 167) | immunized mice that developed peptide specific antibodies [1] | production of anti-CBD1 peptide antibodies, fold lower compared to the CBD1 peptide alone [1] | IgG2/IgG1 ratio [1] | difference in the degree of neutralization of HIV-1 infection versus anti-CBD1 immune sera (HIV-1 BZ 167)
1 | KRWIILGLNKIVRMYKKCKSLEQIWNNMTWMQWDK | 1.72 ± 0.46 | 51 | 200-fold | – | – | – | – | – | – | – | – | – | – | – | – | – | – | –
2 | KRWIILGLNKIVRMYKKIWNNMTW [K24W] | – | – | – | <0.20 | 0.45 ± 0.40 | 1.41 ± 0.55 | 0.87 ± 0.15 | 0.21 ± 0.15 | 1.88 ± 0.66 | <0.20 | 1.55 | <0.20 | 88% | 450-fold | – | – | – | –
3 | KRWIILGLNKIVRMYKKIWNNM [K23M] | – | – | – | <0.20 | 0.53 | <0.20 | <0.20 | <0.20 | <0.20 | <0.20 | 0.66 | <0.20 | 11% | 100-fold | 1 out of the five and ^aOnly 1 out of five mice immunized with the K23M peptide developed anti-K23M specific antibodies. | – | – | –
4 | AQYIKANSKFIGITELKKCSLEQIWNNMTWMQWDK (AQYIKANSKFIGITELKKCSLEQIWNNMTWMQWDK) [A35K] | 0.61 ± 0.35 | 42 | 150-fold | – | – | – | – | – | – | – | – | – | – | – | – | at least 3 fold | 1.56 | less than 2 fold
5 | KRWIILGLNKIVRMYKKIWNNMTWMQWDK [K29K] | 1.80 ± 0.62 | 62 | 250-fold | – | – | – | – | – | – | – | – | – | – | – | – | – | 4.95 | –
6 | KRWIILGLNKIVRMYKKIWNNMTWMQW [K27W] | – | – | – | 0.24 ± 0.12 | <0.20 | <0.20 | <0.20 | 1.49 ± 0.75 | <0.20 | 2.25 ± 0.20 | 1.64 | <0.20 | 65% | 300-fold | – | – | – | –
7 | KRWIILGLNKIVRMYGPGPGIWNNMTWMQW [K30W(G)] | – | – | – | <0.20 | <0.20 | <0.20 | <0.20 | <0.20 | <0.20 | 1.23 ± 0.55 | 1.45 | <0.20 | 81% | 450-fold | – | – | – | –
8 | AQYIKANSKFIGITELKKIWNNMTWMQWDK (AQYIKANSKFIGITELKKIWNNMTWMQWDK) [A30K] | 0.83 ± 0.44 | 45 | 150-fold | – | – | – | – | – | – | – | – | – | – | – | – | – | 3.24 | –
9 | C-S-L-E-Q-I-W-N-N-M (CSLEQIWNNM) [C10M] | – | – | – | – | – | – | – | – | – | – | <0.10 | – | No Effect | No Effect | – | – | – | –
10 | KRWIILGLNKIVRMYKKIWDNMTWMEW [K27W-2] | – | – | – | <0.20 | <0.02 | <0.02 | <0.20 | 0.22 ± 0.08 | 2.01 ± 0.73 | <0.20 | 2.01 | <0.20 | <10% | 100-fold | – | – | – | –
